Test results taken from paper PMC4232510, “Identification of Functionally Important Residues of the Rat P2X4 Receptor by Alanine Scanning Mutagenesis of the Dorsal Fin and Left Flipper Domains” (PLoS ONE, 2014).
Substitutions are numbered along the chain they refer to.

Legend:
rP2X4R I209A mutant = molecular target: T1, rP2X4R I209A mutant (Rattus norvegicus, UniProt P51577, I209A); assay: whole-cell patch clamp, HEK293T cells expressing mutant; assay type: cell-based
T1 construct: expressed in transfected cells; host or cells: HEK293T
T1 sequence (P51577 1-388 I209A): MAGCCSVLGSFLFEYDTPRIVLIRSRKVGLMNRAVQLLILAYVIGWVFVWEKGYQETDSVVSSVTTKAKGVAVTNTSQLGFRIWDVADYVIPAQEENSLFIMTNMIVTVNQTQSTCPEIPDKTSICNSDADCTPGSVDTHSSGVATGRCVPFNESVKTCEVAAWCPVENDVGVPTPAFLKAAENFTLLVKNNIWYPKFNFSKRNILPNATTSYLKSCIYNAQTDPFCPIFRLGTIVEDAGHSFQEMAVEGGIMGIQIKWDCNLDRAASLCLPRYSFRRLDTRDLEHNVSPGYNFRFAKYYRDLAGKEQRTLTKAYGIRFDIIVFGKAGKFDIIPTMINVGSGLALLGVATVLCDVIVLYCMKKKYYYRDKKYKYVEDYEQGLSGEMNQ

rP2X4R V288A mutant = molecular target: T2, rP2X4R V288A mutant (Rattus norvegicus, UniProt P51577, V288A); assay: as above; assay type: cell-based
T2 construct: expressed in transfected cells; host or cells: HEK293T
T2 sequence (P51577 1-388 V288A): T1 sequence (P51577 1-388 I209A) with A209I, V288A

[1] = 100 µM ATP 60 s, biexponential fit
[2] = contribution of τdes2, 100 µM ATP 60 s
[3] = decay after removal of 1 or 3 µM ATP, 3 µM IVM
[4] = naïve receptors, 2–5 s application
[5] = 3 µM IVM 4-6 min vs IVM-untreated

Compound `Nc1ncnc2c1ncn2[C@@H]1O[C@H](COP(=O)(O)OP(=O)(O)OP(=O)(O)O)[C@@H](O)[C@H]1O` [ATP] has a τdes1 (rP2X4R I209A mutant; [1]) of 2.1 ± 0.8 s, a τdes2 (rP2X4R I209A mutant; [1]) of 9.3 ± 2.6 s and an Imax (rP2X4R I209A mutant; 100–1000 µM ATP) of 1.9 ± 0.4 nA. For the same compound, the “Imax+IVM” value (rP2X4R I209A mutant; ATP after 3 µM IVM 4-6 min) was 4.1 ± 0.8 nA, the “A2 /(A1+A2)” value (rP2X4R I209A mutant; [2]) was 70 ± 2% and the “τoff +IVM” value (rP2X4R I209A mutant; [3]) was 22 ± 3.0 s. The EC50 (rP2X4R I209A mutant; [4]) was 4.3 ± 2.1 µM, the τdes (rP2X4R I209A mutant; weighted, 100 µM ATP 60 s) was 6.3 ± 0.2 s and the τdes1 (rP2X4R V288A mutant; [1]) was 1.7 ± 0.3 s. For the same compound, the τdes2 (rP2X4R V288A mutant; [1]) was 9.3 ± 1.7 s, the Imax (rP2X4R V288A mutant; 100–1000 µM ATP) was 1.3 ± 0.2 nA and the “Imax+IVM” value (rP2X4R V288A mutant; ATP after 3 µM IVM 4-6 min) was 3.0 ± 0.7 nA. For the same compound, the “A2 /(A1+A2)” value (rP2X4R V288A mutant; [2]) was 72 ± 8%, the “τoff +IVM” value (rP2X4R V288A mutant; [3]) was 19 ± 2.0 s and the EC50 (rP2X4R V288A mutant; [4]) was 5.7 ± 3.1 µM. For the same compound, the τdes (rP2X4R V288A mutant; weighted, 100 µM ATP 60 s) was 7.5 ± 1.6 s.

For `CC[C@H](C)[C@H]1O[C@]2(CC[C@@H]1C)C[C@@H]1C[C@@H](C/C=C(\C)[C@@H](O[C@H]3C[C@H](OC)[C@@H](O[C@H]4C[C@H](OC)[C@@H](O)[C@H](C)O4)[C@H](C)O3)[C@@H](C)/C=C/C=C3\CO[C@@H]4[C@H](O)C(C)=C[C@@H](C(=O)O1)[C@]34O)O2` [IVM, ivermectin], the “Fold incr. Imax” value (rP2X4R I209A mutant; [5]) was 2.1 ± 0.3 fold and the “Fold incr. Imax” value (rP2X4R V288A mutant; [5]) was 2.3 ± 0.3 fold.
